Test results reported in patent EP0738727B1, “1,4-BENZOXAZINE-2-ACETIC ACID COMPOUND, PROCESS FOR PRODUCING THE SAME, AND USE THEREOF” (Senju Pharmaceutical Co., Ltd., priority 1994, dated 1995).
Marks after values point to notes of the source that are not given here.

How the values were obtained:
aldose reductase = target: T1, aldose reductase (Sus scrofa, UniProt P80276); test: Aldose reductase inhibitory action (method of S. Hayman et al., absorbance change at 340 nm); assay type: biochemical; details: swine lens enzyme, 3 mM dl-glyceraldehyde, 0.1 mM NADPH, pH 6.2, 25°C
T1 construct: swine lenses freeze-stored at -80°C were homogenized with distilled water and centrifuged at 10,000 G for 15 minutes; from tissue; host or cells: swine lens
Description: An aldose reductase enzyme standard product was prepared from swine lens according to the method of S. Hayman et al. [Journal of Biological Chemistry, 240, 877-882 (1965)]. That is, swine lenses freeze-stored at -80°C were homogenized with distilled water and centrifuged at 10,000 G for 15 minutes. The supernatant was prepared into a 40% ammonium sulfate solution and subjected to centrifugation at 10,000 G for 10 minutes. The supernatant obtained was dialyzed overnight against a 0.05 M sodium chloride solution to give a dialyzed solution, which was used as an enzyme standard product.
The activity of aldose reductase was determined by the above-mentioned method of S. Hayman et al. That is, the above-mentioned enzyme solution (25 µl) and a drug solution (25 µl) dissolved in 1% DMSO at various concentrations were added to a 40 mM phosphate buffer (200 µl, pH 6.2) containing, at final concentrations, 0.4 M lithium sulfate, 0.1 mM NADPH (reduced type nicotinamide adenine dinucleotide phosphate) and 3 mM dl-glyceraldehyde as a substrate. The mixture was allowed to react at 25°C for 2 minutes and the changes in absorbance at 340 nm were determined with COBAS FARA II (manufactured by Roche). The changes in absorbance when 1% DMSO was added instead of the drug solution was taken as 100%, based on which 50% inhibition concentration (IC50) was calculated and shown in Table 1. […] The test drug number indicates the example number to be mentioned later. IC50 (M) means the concentration of the drug at which the aldose reductase activity is inhibited by 50% Table 1

[1] = tested on: sorbitol accumulation in tissues; test: Inhibitory action on sorbitol accumulation in tissues of rats with experimental (streptozotocin) diabetes; assay type: in vivo, Sprague-Dawley rats; details: measured 3 hours after final administration, control taken as 100%; for Sorbitol accumulation (%) nerve: sciatic nerve
Description: Sprague-Dawley rats (male, 6 weeks old, 5-6 per group) were fasted for 18 hours and injected with streptozotocin (SIGMA, 60 mg/kg) via the tail vein under etherization to prepare rats with diabetes.
The various compounds were orally administered at 4, 8 and 24 hours after the injection of streptozotocin, at 10 mg/kg or 30 mg/kg as a 0.5% carboxymethylcellulose suspension. During the administrations, the rats were raised under free access to feed and water, and the sorbitol content of the tissues (erythrocytes, sciatic nerve, lens) was determined 3 hours after the final administration, according to the enzyme method of H.Y. Bergmeyer et al. [Methods of Enzymatic Analysis, vol. 3, 1323-1330 (1974)] with the use of SDH (sorbitol dehydrogenase) and NAD (β-nicotinamide adenine dinucleotide). The results (sorbitol accumulation) are expressed in percent (%) relative to the value of a control group administered with 0.5% carboxymethylcellulose solution (solvent) instead of the drug, which was taken as 100%.

ICR mice = test: Acute toxicity after a single oral dose in mice; assay type: in vivo; details: 300 mg/kg orally, male ICR mice, observation for 14 days
Description: Normal ICR mice (male, 7 weeks old, 5 per group) were fasted for 18 hours and the compound (300 mg/kg) of Example 33 was orally administered as a 0.5% carboxymethylcellulose suspension. To the control group, a 0.5% carboxymethylcellulose solution alone was orally administered, and observation was continued for 14 days thereafter, during which period the mice were allowed to take feed and water freely.

[2] = 10 mg/kg orally at 4, 8 and 24 hours after streptozotocin
[3] = 30 mg/kg orally at 4, 8 and 24 hours after streptozotocin

Row | Structure (SMILES) | IC50 (aldose reductase) [nM] | Sorbitol accumulation (%) erythrocytes [1, 2] | Sorbitol accumulation (%) lens [1, 2] | Sorbitol accumulation (%) nerve [1, 2] | other results
1 | O=C(O)CC1Oc2ccccc2N(Cc2nc3cc(Cl)ccc3s2)C1=O (stereo not drawn) [Example 25, 2-[4-(5-chlorobenzothiazol-2-yl)methyl-3,4-dihydro-3-oxo-2H-1,4-benzoxazin-2-yl]acetic acid] | 8.6 | – | – | – | –
2 | Cc1ccc2c(c1)N(Cc1nc3c(F)c(F)ccc3s1)C(=O)C(CC(=O)O)O2 (stereo not drawn) [Example 36, 2-[4-(4,5-difluorobenzothiazol-2-yl)methyl-6-methyl-3,4-dihydro-3-oxo-2H-1,4-benzoxazin-2-yl]acetic acid] | 9.2 | 17.3** % | 60.7* % | 23.5** % | –
3 | O=C(O)CC1Oc2cc(F)ccc2N(Cc2nc3c(F)c(F)cc(F)c3s2)C1=O (stereo not drawn) [Example 44, 2-[7-fluoro-4-(4,5,7-trifluorobenzothiazol-2-yl)methyl-3,4-dihydro-3-oxo-2H-1,4-benzoxazin-2-yl]acetic acid] | – | 25.9** % | 52.0** % | 4.7 ** % | –
4 | O=C(O)CC1Oc2ccccc2N(Cc2nc3ccc(F)c(F)c3s2)C1=O (stereo not drawn) [Example 33, 2-[4-(6,7-difluorobenzothiazol-2-yl)methyl-3,4-dihydro-3-oxo-2H-1,4-benzoxazin-2-yl]acetic acid] | – | – | – | – | death (ICR mice): no case of death; weights (ICR mice; compared with control group): showed transition in the same manner as in the control group
5 | O=C(O)CC1Oc2ccccc2N(Cc2nc3c(Cl)c(Cl)ccc3s2)C1=O (stereo not drawn) [Example 34, 2-[4-(4,5-dichlorobenzothiazol-2-yl)methyl-3,4-dihydro-3-oxo-2H-1,4-benzoxazin-2-yl]acetic acid] | 9.9 | – | – | – | –
6 | O=C(O)CC1Oc2ccc(F)cc2N(Cc2nc3c(F)c(F)ccc3s2)C1=O (stereo not drawn) [Example 26, 2-[6-fluoro-4-(4,5-difluorobenzothiazol-2-yl)methyl-3,4-dihydro-3-oxo-2H-1,4-benzoxazin-2-yl]acetic acid] | 9.6 | – | – | – | –
7 | O=C(O)CC1Oc2ccc(F)cc2N(Cc2nc3c(Cl)c(Cl)ccc3s2)C1=O (stereo not drawn) [Example 28, 2-[4-(4,5-dichlorobenzothiazol-2-yl)methyl-6-fluoro-3,4-dihydro-3-oxo-2H-1,4-benzoxazin-2-yl]acetic acid] | – | 16.3** % | 89.3% | 56.0** % | –
8 | Cc1ccc2c(c1)N(Cc1nc3c(F)c(F)cc(F)c3s1)C(=O)C(CC(=O)O)O2 (stereo not drawn) [Example 35, 2-[4-(4,5,7-trifluorobenzothiazol-2-yl)methyl-6-methyl-3,4-dihydro-3-oxo-2H-1,4-benzoxazin-2-yl] acetic acid] | 9.1 | – | – | – | –
9 | O=C(O)CC1Oc2ccc(Cl)cc2N(Cc2nc3c(F)c(F)cc(F)c3s2)C1=O (stereo not drawn) [Example 38, 2-[6-chloro-4-(4,5,7-trifluorobenzothiazol-2-yl)methyl-3,4-dihydro-3-oxo-2H-1,4-benzoxazin-2-yl]acetic acid] | – | 24.6** % | 44.1** % | 0.0** % | –
10 | O=C(O)CC1Oc2ccc(F)cc2N(Cc2nc3cc(F)cc(F)c3s2)C1=O (stereo not drawn) [Example 27, 2-[6-fluoro-4-(5,7-difluorobenzothiazol-2-yl)methyl-3,4-dihydro-3-oxo-2H-1,4-benzoxazin-2-yl]acetic acid] | 9.9 | – | – | – | –
11 | O=C(O)CC1Oc2cc(F)ccc2N(Cc2nc3c(F)c(F)ccc3s2)C1=O (stereo not drawn) [Example 45, 2-[7-fluoro-4-(4,5-difluorobenzothiazol-2-yl)methyl-3,4-dihydro-3-oxo-2H-1,4-benzoxazin-2-yl]acetic acid] | – | 32.4** % | 71.8* % | 56.8** % | –
12 | CC(C)c1cccc2c1OC(C(C)C)C(=S)N2CC(=O)O (stereo not drawn) [Compound A, 3,4-dihydro-2,8-diisopropyl-3-thioxo-2H-1,4-benzoxazine-4-acetic acid, reference compound] | – | – | – | – | Sorbitol accumulation (%) erythrocytes [1, 3]: 53.7* %; Sorbitol accumulation (%) lens [1, 3]: 87.3%; Sorbitol accumulation (%) nerve [1, 3]: 54.9** %
13 | O=C(O)CC1Oc2ccc(Cl)cc2N(Cc2nc3c(F)c(F)ccc3s2)C1=O (stereo not drawn) [Example 39, 2-[6-chloro-4-(4,5-difluorobenzothiazol-2-yl)methyl-3,4-dihydro-3-oxo-2H-1,4-benzoxazin-2-yl]acetic acid] | 9.9 | – | – | – | –
14 | O=C(O)CC1Oc2ccccc2N(Cc2nc3c(F)c(F)cc(F)c3s2)C1=O (stereo not drawn) [Example 30, 2-[4-(4,5,7-trifluorobenzothiazol-2-yl)methyl-3,4-dihydro-3-oxo-2H-1,4-benzoxazin-2-yl]acetic acid] | – | 22.2** % | 45.2** % | 1.0** % | –
15 | Cc1ccc2c(c1)OC(CC(=O)O)C(=O)N2Cc1nc2cc(F)cc(F)c2s1 (stereo not drawn) [Example 43, 2-[4-(5,7-difluorobenzothiazol-2-yl)methyl-7-methyl-3,4-dihydro-3-oxo-2H-1,4-benzoxazin-2-yl]acetic acid] | – | 34.9** % | 100.9% | 60.6** % | –
16 | O=C(O)CC1Oc2ccccc2N(Cc2nc3cc(F)cc(F)c3s2)C1=O (stereo not drawn) [Example 32, 2-[4-(5,7-difluorobenzothiazol-2-yl)methyl-3,4-dihydro-3-oxo-2H-1,4-benzoxazin-2-yl]acetic acid] | – | 27.2** % | 39.1** % | 11.4** % | –
